# Patent publication EP1621546B1, “Peptide ligands specific to immonoglobulins” (Tecnogen S.p.A., priority 2004, dated 2008)
# Legend:
# [1] = system: immunoglobulins (IgG, IgE, IgM and IgA) present in human serum; test: Separation and purification of immunoglobulins from raw human serum by affinity chromatography on the resin-immobilized compound (gel electrophoresis and Western blotting of fractions); assay type: binding; conditions: compound immobilized on Ultralink Biosupport Medium
# Protocol: (§1) Compound IB (5 mg) prepared according to the preceding Example 1 was dissolved in 5.0 ml of 0.2 M NaHCO3, 0.6 M Na citrate, pH 9.0, and incubated with 130 mg (1 mL) of resin Ultralink Biosupport Medium™ (PIERCE, Rockford, IL, USA), a support for affinity chromatography pre-activated with a function of the azalactone type for direct coupling of peptides and proteins. The suspension was stirred for 12 hours at room temperature and the extent of coupling was monitored by taking samples of the reaction mixture at various times and then analysing by RP-HPLC.
# (§2) After 12 hours, approx. 90-95% of the initial peptide had been immobilized covalently on the resin. The derivatized resin was incubated with 0.1 M TRIS, pH 8.5 to block any sites of the resin that are still reactive, and then packed in a glass column 100 x 0.6 mm ID with variable plunger (OMNIFIT™, Cat. No. 006CC-06-10-FF).
# (§3) To evaluate the capability of Compound I(B) immobilized on resin according to Example 2 to separate and purify immunoglobulins, the column was equilibrated with buffer 25 mM Bis-Tris (Bis(2-hydroxyethyl)amino-tris(hydroxymethyl)methane, Sigma-Aldrich™, Cat. No. B7535), pH 6.5, at a flow rate of 1 mL/min, monitoring the eluent at 280 nm.
# Raw human serum (Sigma-Aldrich™, Cat. No. R9133) was filtered, diluted 1:1 (v/v) with the binding buffer, loaded on the column and, after elution of the unbound material, the eluent was changed to acetic acid (AcH, Sigma-Aldrich™, Cat. No. 46928) 0.1 M, pH 3.0, for eluting the adsorbed material.
# The material eluted from the column was neutralized with TRIS 1 M, pH 9.0 and characterized by analysis by polyacrylamide gel electrophoresis and Western blotting (WB) on nitrocellulose for identifying the immunoglobulins retained.
# [2] = system: IgG, IgE, IgM and IgA immunoglobulins; test: Separation and purification of immunoglobulins from raw murine serum by affinity chromatography on the resin-immobilized compound; assay type: binding; conditions: compound immobilized on Ultralink Biosupport Medium
# Protocol: as §1, §2
# as §3, with “nm. […]” for “nm.”
substance,measurement,setting,value
(NH2-L-Cys-L-Tyr-L-His-L-His)2-L-Lys-L-Gly-OH [Compound I(B)],retention of the immunoglobulin fraction of the raw serum (electrophoretic analysis),"[1]; raw human serum diluted 1:1, binding buffer 25 mM Bis-Tris pH 6.5, elution with acetic acid 0.1 M pH 3.0",able to retain the immunoglobulin fraction of the raw serum
same,classes of immunoglobulins retained (WB analysis of the retained material),"[1]; raw human serum, Western blotting on nitrocellulose","retained all the classes of immunoglobulins (IgG, IgE, IgM and IgA)"
same,albumin (selectivity of the column),"[1]; raw human serum, electrophoretic analysis",recovered in the unretained material
same,albumin (selectivity of the column),[2],recovered in the unretained material
same,immunoglobulins retained by the column,[2],"able to retain the IgG, IgE, IgM and IgA immunoglobulins"
